Assay results published in paper PMC12030706, “Novel ^177Lu-Labeled [Thz^14]Bombesin(6–14) Derivatives with Low Pancreas Accumulation for Targeting Gastrin-Releasing Peptide Receptor-Expressing Cancer” (Pharmaceuticals, 2025).
Numbered stars: 1 amine (or outer) side, 2 acyl side, 3 side chain; on linkers, the order of the positions; unused ones are H or OH. Square brackets hold non-standard residues; d marks the D form. Peptide text beside a SMILES is read from it. * marks the point of attachment. DOTA = O=C(O)CN1CCN(CC(=O)O)CCN(CC(=O)*)CCN(CC(=O)O)CC1; NMeH = CN[C@@H](Cc1c[nH]cn1)C(=O)O; X1 = O=C(CN1CCC(N[*:1])CC1)[*:2]; Tle = CC(C)(C)[C@H](N)C(=O)O; Thz = O=C(O)[C@@H]1CSCN1

Test: Ex vivo biodistribution in PC-3 tumor-bearing mice
Settings: mouse; for tissue to tissue ratio at 1 h / tissue to tissue ratio at 4 h / tissue to tissue ratio at 24 h / tissue to tissue ratio at 72 h / tissue to tissue ratio at 120 h: male, NOD.Cg-Rag1^tm1Mom Il2rg^tm1Wjl/SzJ (NRG), total radioactivity; for tissue to tissue ratio at 4 h / tissue uptake at 4 h: 4 h post-injection; for tissue to tissue ratio at 24 h / tissue uptake at 24 h: 24 h post-injection; for tissue to tissue ratio at 72 h / tissue uptake at 72 h: 72 h post-injection; for tissue to tissue ratio at 120 h / tissue uptake at 120 h: 120 h post-injection
Method: SPECT/CT imaging experiments were performed using an MILabs (Houten, The Netherlands) U-SPECT-II/CT scanner with a custom-made ultra-high-sensitivity big mouse collimator (2 mm pinhole size) following previously reported procedures. […] Male NOD.Cg-Rag1^tm1Mom Il2rg^tm1Wjl/SzJ (NRG) mice were used in these experiments because of their immunodeficient characteristics and excellent radiation tolerance. Mice were anaesthetized and subcutaneously implanted with 5 × 10^6 PC-3 prostate cancer cells (100 µL; 1:1 PBS/Matrigel) behind the left shoulder. SPECT/CT imaging and biodistribution studies were performed once the tumors reached a diameter of 5–8 mm, typically after approximately 4 weeks of growth.
For ex vivo biodistribution studies, the mice were injected with ~2–6 MBq of the radioligand. […] Blocking study was conducted at 1 h post-injection via co-injection of the radioligand with 100 μg of [D-Phe^6,Leu-NHEt^13,des-Met^14]Bombesin(6–14). Organs/tissues of interested were collected, weighed, and measured using an automatic gamma counter.

[1] = tumor/blood, Tumor/blood uptake ratio
[2] = tumor/kidney, Tumor/kidney uptake ratio
[3] = tumor/muscle, Tumor/muscle uptake ratio
[4] = tumor/pancreas, Tumor/pancreas uptake ratio
[5] = PC-3 tumor, Uptake in PC-3 tumor
[6] = adrenal glands, Uptake in adrenal glands

CC(C)C[C@H](NC(=O)[C@H](Cc1cnc[nH]1)N(C)C(=O)CNC(=O)[C@@H](NC(=O)[C@H](C)NC(=O)[C@H](Cc1c[nH]c2ccccc12)NC(=O)[C@H](Cc1c[nH]cn1)NC(=O)[C@@H](Cc1ccccc1)NC(=O)CN1CCC(NC(=O)CN2CCN(CC(=O)O)CCN(CC(=O)O)CCN(CC(=O)O)CC2)CC1)C(C)(C)C)C(=O)N1CSC[C@H]1C(N)=O [[^177Lu]Lu-LW01142, metal not drawn] ({DOTA}-[X1][dF]HWA[Tle]G[NMeH]L[Thz]-NH2)
tissue to tissue ratio at 1 h (tumor/blood, Tumor/blood uptake ratio, 1 h blocked (co-injected with 100 µg [D-Phe6,Leu-NHEt13,des-Met14]Bombesin(6-14))): 3.91 ± 0.87
tissue to tissue ratio at 1 h (tumor/blood, Tumor/blood uptake ratio, 1 h post-injection): 8.08 ± 0.92
tissue to tissue ratio at 4 h [1]: 162 ± 52
tissue to tissue ratio at 24 h [1]: 841 ± 162
tissue to tissue ratio at 72 h [1]: 1620 ± 500
tissue to tissue ratio at 120 h [1]: 1800 ± 724
tissue to tissue ratio at 1 h (tumor/kidney, Tumor/kidney uptake ratio, 1 h blocked (co-injected with 100 µg [D-Phe6,Leu-NHEt13,des-Met14]Bombesin(6-14))): 0.7 ± 0.15
tissue to tissue ratio at 1 h (tumor/kidney, Tumor/kidney uptake ratio, 1 h post-injection): 1.95 ± 0.04
tissue to tissue ratio at 4 h [2]: 2.14 ± 0.26
tissue to tissue ratio at 24 h [2]: 2.88 ± 0.84
tissue to tissue ratio at 72 h [2]: 7.34 ± 1.83
tissue to tissue ratio at 120 h [2]: 7.46 ± 1.11
tissue to tissue ratio at 1 h (tumor/muscle, Tumor/muscle uptake ratio, 1 h blocked (co-injected with 100 µg [D-Phe6,Leu-NHEt13,des-Met14]Bombesin(6-14))): 25.2 ± 10.1
tissue to tissue ratio at 1 h (tumor/muscle, Tumor/muscle uptake ratio, 1 h post-injection): 60.1 ± 5.97
tissue to tissue ratio at 4 h [3]: 454 ± 53.3
tissue to tissue ratio at 24 h [3]: 672 ± 161
tissue to tissue ratio at 72 h [3]: 736 ± 189
tissue to tissue ratio at 120 h [3]: 588 ± 92.8
tissue to tissue ratio at 1 h (tumor/pancreas, Tumor/pancreas uptake ratio, 1 h blocked (co-injected with 100 µg [D-Phe6,Leu-NHEt13,des-Met14]Bombesin(6-14))): 2.79 ± 0.69
tissue to tissue ratio at 1 h (tumor/pancreas, Tumor/pancreas uptake ratio, 1 h post-injection): 3.06 ± 0.45
tissue to tissue ratio at 4 h [4]: 7.53 ± 0.35
tissue to tissue ratio at 24 h [4]: 6.78 ± 0.88
tissue to tissue ratio at 72 h [4]: 6.18 ± 0.6
tissue to tissue ratio at 120 h [4]: 4.08 ± 1
tissue uptake at 1 h (PC-3 tumor, 100 ug, Uptake in PC-3 tumor, 1 h blocked (co-injected with 100 µg [D-Phe6,Leu-NHEt13,des-Met14]Bombesin(6-14))): 5.03 ± 0.43 %ID/g
tissue uptake at 1 h (PC-3 tumor, Uptake in PC-3 tumor, 1 h post-injection): 13.4 ± 1.48 %ID/g
tissue uptake at 4 h [5]: 11.8 ± 2.24 %ID/g
tissue uptake at 24 h [5]: 7.07 ± 1.23 %ID/g
tissue uptake at 72 h [5]: 4.18 ± 0.6 %ID/g
tissue uptake at 120 h [5]: 2.25 ± 0.71 %ID/g
tissue uptake at 1 h (adrenal glands, 100 ug, Uptake in adrenal glands, 1 h blocked (co-injected with 100 µg [D-Phe6,Leu-NHEt13,des-Met14]Bombesin(6-14))): 0.75 ± 0.33 %ID/g
tissue uptake at 1 h (adrenal glands, Uptake in adrenal glands, 1 h post-injection): 1.43 ± 0.5 %ID/g
tissue uptake at 4 h [6]: 0.59 ± 0.06 %ID/g
tissue uptake at 24 h [6]: 0.41 ± 0.08 %ID/g
tissue uptake at 72 h [6]: 0.2 ± 0.05 %ID/g
tissue uptake at 1 h (blood, 100 ug, Uptake in blood, 1 h blocked (co-injected with 100 µg [D-Phe6,Leu-NHEt13,des-Met14]Bombesin(6-14))): 1.34 ± 0.35 %ID/g
tissue uptake at 1 h (blood, Uptake in blood, 1 h post-injection): 1.67 ± 0.21 %ID/g
tissue uptake at 4 h (blood, Uptake in blood): 0.08 ± 0.01 %ID/g
tissue uptake at 24 h (blood, Uptake in blood): 0.01 %ID/g
tissue uptake at 1 h (bone, 100 ug, Uptake in bone, 1 h blocked (co-injected with 100 µg [D-Phe6,Leu-NHEt13,des-Met14]Bombesin(6-14))): 0.13 ± 0.03 %ID/g
tissue uptake at 4 h (bone, Uptake in bone): 0.03 ± 0.01 %ID/g
tissue uptake at 24 h (bone, Uptake in bone): 0.03 ± 0.01 %ID/g
tissue uptake at 72 h (bone, Uptake in bone): 0.03 ± 0.01 %ID/g
tissue uptake at 120 h (bone, Uptake in bone): 0.02 ± 0.01 %ID/g
tissue uptake at 1 h (brain, 100 ug, Uptake in brain, 1 h blocked (co-injected with 100 µg [D-Phe6,Leu-NHEt13,des-Met14]Bombesin(6-14))): 0.03 ± 0.01 %ID/g
tissue uptake at 1 h (brain, Uptake in brain, 1 h post-injection): 0.03 ± 0.01 %ID/g
tissue uptake at 4 h (brain, Uptake in brain): 0.01 %ID/g
tissue uptake at 1 h (fat, 100 ug, Uptake in fat, 1 h blocked (co-injected with 100 µg [D-Phe6,Leu-NHEt13,des-Met14]Bombesin(6-14))): 0.14 ± 0.04 %ID/g
tissue uptake at 1 h (fat, Uptake in fat, 1 h post-injection): 0.11 ± 0.04 %ID/g
tissue uptake at 4 h (fat, Uptake in fat): 0.02 ± 0.01 %ID/g
tissue uptake at 24 h (fat, Uptake in fat): 0.01 %ID/g
tissue uptake at 72 h (fat, Uptake in fat): 0.01 %ID/g
tissue uptake at 1 h (heart, 100 ug, Uptake in heart, 1 h blocked (co-injected with 100 µg [D-Phe6,Leu-NHEt13,des-Met14]Bombesin(6-14))): 0.43 ± 0.14 %ID/g
tissue uptake at 1 h (heart, Uptake in heart, 1 h post-injection): 0.45 ± 0.06 %ID/g
tissue uptake at 24 h (heart, Uptake in heart): 0.02 ± 0.01 %ID/g
tissue uptake at 72 h (heart, Uptake in heart): 0.02 %ID/g
tissue uptake at 120 h (heart, Uptake in heart): 0.01 %ID/g
tissue uptake at 1 h (kidneys, 100 ug, Uptake in kidneys, 1 h blocked (co-injected with 100 µg [D-Phe6,Leu-NHEt13,des-Met14]Bombesin(6-14))): 7.44 ± 1.71 %ID/g
tissue uptake at 24 h (kidneys, Uptake in kidneys): 2.64 ± 0.94 %ID/g
tissue uptake at 72 h (kidneys, Uptake in kidneys): 0.6 ± 0.17 %ID/g
tissue uptake at 120 h (kidneys, Uptake in kidneys): 0.3 ± 0.07 %ID/g
tissue uptake at 1 h (large intestine, 100 ug, Uptake in large intestine, 1 h blocked (co-injected with 100 µg [D-Phe6,Leu-NHEt13,des-Met14]Bombesin(6-14))): 0.31 ± 0.08 %ID/g
